Reference: US5525595A, “3- or 4-glycosyloxybenzopyran derivative and antiallergic agent containing the derivative as active ingredient” (priority 1993, dated 1996)

Tests used:
[1] = tested on: airway resistance in experimental asthma model; assay: Effect on experimental asthma model in guinea pigs; format: in vivo, guinea pigs (Male hadley); settings: Cavia porcellus; 100 mg/kg oral, OVA challenge, guinea pigs; Table 7
Procedure: The asthma is typical allergic disease and we carried out this pharmacological test by well known experimental asthma model in guinea pigs in order to confirm that the compounds of the present invention suppress the asthma. In the following, the method of the pharmacological test will be explained.
Method: Male hadley guinea pigs were immunized by intraperitoneal injection of saline (1 ml) containing 5 mg of ovalbumine (OVA) three times at interval of one week. 2 weeks after final immunization, the animals were challenged by inhalation of 1% OVA-saline solution for 1 minute and then the airway resistance of the animals were measured for 30 minutes with PULMOS-1 (Medical Interface Project Station Inc.) after the inhalation. The compounds of the present invention (test compounds) suspended in 0.5% CMCNa were given orally at a dose of 100 mg/kg. As positive control group, Disodium Cromoglicate (DSCG), well known anti-allergic agent, in saline were injected at a dose of 20 mg/kg into the vein of the animals. As vehicle control group, only 0.5% CMCNa solution were given orally. The inhibition (%) of the airway resistance in vehicle control group was calculated according to equation 5 and the result was shown in Table 7. Each experimental group consisted of 5 guinea pigs. [formula] In equation 5: A: Maximum airway resistance in vehicle control group
B: Maximum airway resistance in test compounds group or positive control group

[2] = tested on: contact dermatitis induced by picryl chloride; assay: Effect on contact dermatitis induced by picryl chloride in mice (delayed type hypersensitization); format: in vivo; settings: Mus musculus; 100 mg/kg oral, ear thickness 24 hours after challenge; Table 6; read-out: Inhibition (%) against the increase of ear thickness
Procedure: The delayed type hypersensitization is inhibited by steroid, but can not be effected by known anti-allergic agents. In the following, the method of the pharmacological test will be explained.
Method: Mice, shaved their abdominal skin on previous day, were immunized by applying 0.1 ml of acetone containing 7 mg of picryl chloride to the skin of the abdomen. 7 days after immunization, the thickness of the ear was measured with a dial thickness gauge, then mice were challenged by painting 5 μl of 1% picryl chloride olive oil solution to each side skin of left ear. 24 hours after challenge, the thickness of the left ear was measured again and the increase (%) of thickness was calculated according to equation 2. The compounds of the present invention (test compounds) suspended in 0.5% CMCNa were forcibly administered orally at a dose of 100 mg/kg at 1 hour before and 16 hours after challenge. As vehicle control group, only 0.5% CMCNa solution were administered orally, and as positive control group, Prednisolone, steroid hormone, and Tranilast were administered orally at the doses of 10 mg/kg and 100 mg/kg, respectively.
Increase (%)=(A-B)/B×100 (Equation 2)
A: thickness of the ear at 24 hours after challenge
B: thickness of the ear before challenge
Inhibition(%)=(C-D)/C×100 (equation 3)
C: The increase (%) in vehicle control group
D: The increase (%) in test compounds group or positive control group

[3] = tested on: homologous passive cutaneous anaphylaxis (PCA) reaction; assay: Effect on homologous passive cutaneous anaphylaxis (PCA) reaction in rats; format: in vivo, rats (Male wistar rats); settings: Rattus norvegicus, 0.5 h; 100 mg/kg oral, 1 hour before antigen, rats; Table 3
Procedure: This experimental animal model is caused by immediate type allergic reaction, namely, antigen-antibody reaction. In the following, the method of this pharmacological test will be explained.
Method: Male wistar rats (9 weeks old) were intradermally administered 0.05 ml of anti-serum against trinitrophenylated ascaris (TNP-As) into two sites on the shaved dorsal skin. 48 hours later, 3-glycosyloxybenzopyran derivatives and 4-glycosyloxybenzopyran derivatives (test compounds) suspended in 0.5% sodium carboxymethylcellulose (CMCNa) were given orally at a dose of 100 mg/kg to the animals. 1 hour after administration of Test compounds, the animals were induced anaphylaxis by injection of saline (1 ml) dissolving 5 mg of Evans Blue and 1 mg of TNP-As into the tail vein of the animals. 30 minutes after induction of anaphylaxis, animals were anesthetized by ether and killed by bleeding, and were flayed dorsal skin. The leakage of dye was assessed by measuring the diameter (mean of shortest and longest diameter) of the blue spot on the inside surface of dorsal skin. As vehicle control group, only 0.5% CMCNa solution was administered orally, and as positive control group, Tranilast suspended in 0.5% CMCNa were administered orally at a dose of 100 mg/kg to the animals with the same method as the test compounds groups. Each experimental group consisted of 5 rats. [formula] In equation 1: A: leakage of dye in vehicle control group
B: leakage of dye in test compound group or in positive control group
The anti-allergic activity of the compounds of the present invention were compared with that of analogous compounds which were published in the Patent (EP-A-0598117) by PCA reaction. This pharmacological test was performed according to the method described in Test Example 1.

SMILES	inhibition in vivo at 100 mg/kg [1] [%]	inhibition in vivo at 100 mg/kg [2] [%]	inhibition in vivo at 100 mg/kg [3] [%]
CC(C)Oc1ccc2c(O)c(O[C@@H]3O[C@H](CO)[C@H](O)[C@H](O)[C@H]3O)c(=O)oc2c1 [compound 36]	66.4	58.2	56.7
CCC=CCCOc1ccc2c(O)c(O[C@@H]3O[C@H](CO)[C@H](O)[C@H](O)[C@H]3O)c(=O)oc2c1 [compound 37]	72.4	58.3	59.5
CC(C)=CCC/C(C)=C/COc1ccc2c(O)c(O[C@@H]3O[C@H](CO)[C@H](O)[C@H](O)[C@H]3O)c(=O)oc2c1 [compound 38]	73.7	57.6	59.6
O=C(Oc1ccc2c(O)c(O[C@@H]3O[C@H](CO)[C@H](O)[C@H](O)[C@H]3O)c(=O)oc2c1)c1ccccc1 [compound 39]	64.1	54.3	58.3
O=c1oc2cc(OCc3ccccc3)ccc2c(O)c1O[C@@H]1O[C@H](CO)[C@H](O)[C@H](O)[C@H]1O [compound 40]	46.2	41.3	40.5
CCCCCCOc1ccc2c(O)c(O[C@@H]3O[C@H](CO)[C@H](O)[C@H](O)[C@H]3O)c(=O)oc2c1 [compound 41]	77.7	65.7	60.8
CC(=O)Oc1ccc2c(O)c(O[C@@H]3O[C@H](CO)[C@H](O)[C@H](O)[C@H]3O)c(=O)oc2c1 [compound 42]	62.6	52.1	52.7
CCCCCCOc1ccc2c(O)c(O[C@@H]3O[C@H](CO)[C@@H](O)[C@H](O)[C@H]3O)c(=O)oc2c1 [compound 43]	76.3	63.4	63.2
CCCCCCOc1ccc2c(O)c(O[C@H]3O[C@H](CO)[C@@H](O)[C@H](O)[C@@H]3O)c(=O)oc2c1 [compound 44]	71.2	58.2	53.5
CC(=O)Oc1ccc2c(O)c(O[C@H]3O[C@H](CO)[C@@H](O)[C@H](O)[C@@H]3O)c(=O)oc2c1 [compound 45]	46.5	46.3	46.3
O=c1oc2cc(O)ccc2c(O[C@@H]2O[C@H](CO)[C@@H](O)[C@H](O)[C@H]2O)c1O [compound 59, 3,7-dihydroxy-4-(β-D-glucopyranosyloxy)-2H-1-benzopyran-2-one]	49.1	45.6	46.1
COc1ccc2c(O[C@@H]3O[C@H](CO)[C@@H](O)[C@H](O)[C@H]3O)c(O)c(=O)oc2c1 [compound 61, 7-methoxy-3-hydroxy-4-(β-D-glucopyranosyloxy)-2H-1-benzopyran-2-one]	53.3	50.7	49.2
CCCCOc1ccc2c(O[C@@H]3O[C@H](CO)[C@@H](O)[C@H](O)[C@H]3O)c(O)c(=O)oc2c1 [compound 63, 7-butoxy-3-hydroxy-4-(β-D-glucopyranosyloxy)-2H-1-benzopyran-2-one]	64.7	57.1	57.4
COc1ccc2c(O[C@@H]3O[C@H](CO)[C@@H](O)[C@H](O)[C@H]3O)c(OC(C)=O)c(=O)oc2c1 [compound 65, 7-methoxy-3-acetoxy-4-(β-D-glucopyranosyloxy)-2H-1-benzopyran-2-one]	46.9	46.3	45.6
CCCCCCCCOc1ccc2c(O[C@@H]3O[C@H](CO)[C@@H](O)[C@H](O)[C@H]3O)c(O)c(=O)oc2c1 [compound 66]	74.1	62.5	63.8
CCCCCCCCCCOc1ccc2c(O[C@@H]3O[C@H](CO)[C@@H](O)[C@H](O)[C@H]3O)c(O)c(=O)oc2c1 [compound 67]	70.6	63.8	60.4
CCCCCCCCCCCCOc1ccc2c(O[C@@H]3O[C@H](CO)[C@@H](O)[C@H](O)[C@H]3O)c(O)c(=O)oc2c1 [compound 68]	65.3	56.6	59.9
CC(C)Oc1ccc2c(O[C@@H]3O[C@H](CO)[C@@H](O)[C@H](O)[C@H]3O)c(O)c(=O)oc2c1 [compound 69]	68.3	56.4	57.2
CCC=CCCOc1ccc2c(O[C@@H]3O[C@H](CO)[C@@H](O)[C@H](O)[C@H]3O)c(O)c(=O)oc2c1 [compound 70]	67.7	57.6	58.5
CC(C)=CCC/C(C)=C/COc1ccc2c(O[C@@H]3O[C@H](CO)[C@@H](O)[C@H](O)[C@H]3O)c(O)c(=O)oc2c1 [compound 71]	65.2	57.1	57.4
O=C(Oc1ccc2c(O[C@@H]3O[C@H](CO)[C@@H](O)[C@H](O)[C@H]3O)c(O)c(=O)oc2c1)c1ccccc1 [compound 72]	49.5	47.8	46.9
COc1ccc2c(O[C@@H]3O[C@H](CO)[C@@H](O)[C@H](O)[C@H]3O)c(OC(=O)c3ccccc3)c(=O)oc2c1 [compound 73]	44.7	45.8	45.8
CCCCOc1ccc2c(O[C@@H]3O[C@H](CO)[C@@H](O)[C@H](O)[C@H]3O)c(OC(C)=O)c(=O)oc2c1 [compound 74]	55.4	47	46.8
CCCCCCCCCCCCOc1ccc2c(O[C@@H]3O[C@H](CO)[C@@H](O)[C@H](O)[C@H]3O)c(OC(C)=O)c(=O)oc2c1 [compound 75]	45.2	46.2	43.3
O=c1oc2cc(OCc3ccccc3)ccc2c(O[C@@H]2O[C@H](CO)[C@@H](O)[C@H](O)[C@H]2O)c1O [compound 76]	47.5	46.8	47.7
O=c1oc2cc(O)ccc2c(O[C@H]2O[C@H](CO)[C@@H](O)[C@H](O)[C@@H]2O)c1O [compound 77]	37.3	39.6	42.7
COc1ccc2c(O[C@H]3O[C@H](CO)[C@@H](O)[C@H](O)[C@@H]3O)c(O)c(=O)oc2c1 [compound 78]	50.8	43.1	46.2
CCCCOc1ccc2c(O[C@H]3O[C@H](CO)[C@@H](O)[C@H](O)[C@@H]3O)c(O)c(=O)oc2c1 [compound 79]	50.3	46.3	47.1
